Measurements from PMC4310350 (Drug Design, Development and Therapy, 2015).
Where two headings read alike, the source gives them in different places.

How the values were obtained:
OAT3 = target: T1, OAT3 (Homo sapiens, UniProt Q8TCC7); experiment: Uptake in HEK293 cells overexpressing OAT3; type: in vitro ADME
T1 sequence (Q8TCC7 1-542): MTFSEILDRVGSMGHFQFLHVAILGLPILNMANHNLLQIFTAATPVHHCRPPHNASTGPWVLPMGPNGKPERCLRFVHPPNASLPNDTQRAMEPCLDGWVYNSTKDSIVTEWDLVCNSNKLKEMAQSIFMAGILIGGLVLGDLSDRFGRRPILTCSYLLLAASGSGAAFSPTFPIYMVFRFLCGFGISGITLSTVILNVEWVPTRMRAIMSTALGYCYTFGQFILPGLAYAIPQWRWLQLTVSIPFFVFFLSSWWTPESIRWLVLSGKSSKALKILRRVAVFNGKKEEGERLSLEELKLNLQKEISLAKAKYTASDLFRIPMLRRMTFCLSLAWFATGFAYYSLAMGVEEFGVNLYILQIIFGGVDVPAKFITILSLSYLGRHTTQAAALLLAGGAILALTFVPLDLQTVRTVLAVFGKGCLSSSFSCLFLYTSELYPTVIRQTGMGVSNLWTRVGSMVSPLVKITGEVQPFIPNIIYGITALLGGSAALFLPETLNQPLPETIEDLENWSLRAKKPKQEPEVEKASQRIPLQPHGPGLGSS

OCT1 = target: T2, OCT1 (Homo sapiens, UniProt O15245); experiment: Uptake in HEK293 cells overexpressing OCT1; type: in vitro ADME; conditions: OCT1, influx
T2 sequence (O15245 1-554): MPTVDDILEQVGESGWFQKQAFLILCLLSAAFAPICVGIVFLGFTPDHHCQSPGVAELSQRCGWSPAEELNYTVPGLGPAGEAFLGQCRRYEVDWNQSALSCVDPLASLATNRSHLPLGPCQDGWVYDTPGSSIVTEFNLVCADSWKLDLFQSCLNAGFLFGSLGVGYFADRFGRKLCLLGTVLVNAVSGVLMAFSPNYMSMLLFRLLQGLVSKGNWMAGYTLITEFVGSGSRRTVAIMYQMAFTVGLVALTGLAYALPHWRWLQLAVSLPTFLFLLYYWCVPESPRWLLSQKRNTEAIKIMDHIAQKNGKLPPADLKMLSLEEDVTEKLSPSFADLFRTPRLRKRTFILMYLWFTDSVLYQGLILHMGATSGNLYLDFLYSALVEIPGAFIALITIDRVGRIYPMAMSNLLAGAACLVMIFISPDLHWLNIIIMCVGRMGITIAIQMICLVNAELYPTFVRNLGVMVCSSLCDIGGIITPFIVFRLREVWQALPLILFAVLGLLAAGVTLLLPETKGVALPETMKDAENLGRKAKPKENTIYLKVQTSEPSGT

OAT1 = target: T3, OAT1 (Homo sapiens, UniProt Q4U2R8); experiment: Inhibitory effect of catalposide on OAT1 transport activity; type: in vitro ADME; conditions: probe 1 μM PAH, catalposide 0–100 μM
T3 sequence (Q4U2R8 1-563): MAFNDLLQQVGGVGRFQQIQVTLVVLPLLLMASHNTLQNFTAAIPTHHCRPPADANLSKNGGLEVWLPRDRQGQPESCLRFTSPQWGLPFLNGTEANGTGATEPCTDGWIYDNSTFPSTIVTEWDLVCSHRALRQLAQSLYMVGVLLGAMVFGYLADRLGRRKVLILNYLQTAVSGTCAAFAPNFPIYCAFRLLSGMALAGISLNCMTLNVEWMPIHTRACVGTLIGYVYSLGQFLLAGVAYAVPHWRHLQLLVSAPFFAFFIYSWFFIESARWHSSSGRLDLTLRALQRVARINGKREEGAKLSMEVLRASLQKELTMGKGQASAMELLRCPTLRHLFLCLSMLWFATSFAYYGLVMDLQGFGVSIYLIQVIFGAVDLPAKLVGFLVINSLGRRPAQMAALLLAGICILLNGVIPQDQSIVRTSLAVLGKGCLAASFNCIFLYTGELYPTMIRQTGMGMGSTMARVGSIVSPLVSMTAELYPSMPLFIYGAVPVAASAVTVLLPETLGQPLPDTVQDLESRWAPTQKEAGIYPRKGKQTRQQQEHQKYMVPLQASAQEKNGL

OCT2 = target: T4, OCT2 (Homo sapiens, UniProt O15244); experiment: Inhibitory effect of catalposide on OCT2 transport activity; type: in vitro ADME; conditions: probe 0.1 μM [3H]MPP+, catalposide 0–100 μM
T4 sequence (O15244 1-555): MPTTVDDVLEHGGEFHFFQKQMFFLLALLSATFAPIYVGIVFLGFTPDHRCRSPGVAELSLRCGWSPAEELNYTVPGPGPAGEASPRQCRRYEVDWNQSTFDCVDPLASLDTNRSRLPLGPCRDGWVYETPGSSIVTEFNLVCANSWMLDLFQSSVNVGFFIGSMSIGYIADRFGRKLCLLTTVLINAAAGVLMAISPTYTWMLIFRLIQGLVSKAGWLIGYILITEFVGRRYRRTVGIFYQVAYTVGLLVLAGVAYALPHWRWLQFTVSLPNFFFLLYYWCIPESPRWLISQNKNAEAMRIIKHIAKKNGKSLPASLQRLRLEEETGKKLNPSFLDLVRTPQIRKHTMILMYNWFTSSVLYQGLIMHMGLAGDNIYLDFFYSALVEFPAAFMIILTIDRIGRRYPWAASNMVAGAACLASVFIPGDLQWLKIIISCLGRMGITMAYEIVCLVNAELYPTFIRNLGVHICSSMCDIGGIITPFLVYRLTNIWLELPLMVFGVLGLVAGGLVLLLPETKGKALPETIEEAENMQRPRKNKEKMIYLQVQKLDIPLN

P-gp = P-gp (Homo sapiens, UniProt P08183); experiment: Inhibitory effect of catalposide on P-gp transport activity; type: in vitro ADME; conditions: probe 0.1 μM [3H]digoxin, catalposide 1–100 μM
P-gp, sequence (P08183 whole entry): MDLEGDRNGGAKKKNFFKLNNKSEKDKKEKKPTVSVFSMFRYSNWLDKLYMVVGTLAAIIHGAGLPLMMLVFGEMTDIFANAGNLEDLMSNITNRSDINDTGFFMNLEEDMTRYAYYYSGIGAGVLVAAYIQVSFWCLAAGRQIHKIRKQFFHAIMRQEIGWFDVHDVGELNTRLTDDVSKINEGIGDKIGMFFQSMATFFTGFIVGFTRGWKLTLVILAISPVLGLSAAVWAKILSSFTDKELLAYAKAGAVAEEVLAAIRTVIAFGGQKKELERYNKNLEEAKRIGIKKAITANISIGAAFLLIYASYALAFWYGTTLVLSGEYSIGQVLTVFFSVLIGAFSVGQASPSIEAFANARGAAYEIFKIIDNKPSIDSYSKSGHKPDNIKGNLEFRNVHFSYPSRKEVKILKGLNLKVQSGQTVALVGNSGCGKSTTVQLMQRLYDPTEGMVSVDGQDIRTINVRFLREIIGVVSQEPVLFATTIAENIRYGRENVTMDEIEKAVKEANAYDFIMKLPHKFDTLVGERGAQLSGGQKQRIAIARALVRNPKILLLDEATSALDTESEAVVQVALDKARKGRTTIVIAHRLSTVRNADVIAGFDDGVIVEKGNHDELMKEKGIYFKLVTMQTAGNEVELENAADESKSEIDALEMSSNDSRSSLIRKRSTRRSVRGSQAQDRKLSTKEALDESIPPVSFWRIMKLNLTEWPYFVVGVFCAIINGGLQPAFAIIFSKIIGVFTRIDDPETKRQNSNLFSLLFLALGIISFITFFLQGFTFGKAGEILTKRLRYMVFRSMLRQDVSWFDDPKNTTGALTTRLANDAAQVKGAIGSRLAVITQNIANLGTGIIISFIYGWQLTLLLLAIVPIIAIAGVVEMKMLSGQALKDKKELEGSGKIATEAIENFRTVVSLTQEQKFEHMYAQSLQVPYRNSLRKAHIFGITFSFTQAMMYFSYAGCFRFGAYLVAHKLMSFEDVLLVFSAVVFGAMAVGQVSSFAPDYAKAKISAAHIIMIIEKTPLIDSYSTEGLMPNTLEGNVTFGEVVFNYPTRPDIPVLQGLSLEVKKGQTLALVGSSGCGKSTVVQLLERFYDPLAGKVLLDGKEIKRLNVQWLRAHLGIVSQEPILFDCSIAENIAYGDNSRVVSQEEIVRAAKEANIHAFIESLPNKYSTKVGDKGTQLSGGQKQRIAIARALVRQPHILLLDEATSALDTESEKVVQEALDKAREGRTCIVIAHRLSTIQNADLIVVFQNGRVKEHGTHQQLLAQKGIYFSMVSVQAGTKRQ

[1] = 3-hour incubation in human plasma; cited from earlier work
[2] = rat liver microsomes in the presence of NADPH; cited from earlier work

O=C(O[C@H]1[C@@H]2C=CO[C@@H](O[C@@H]3O[C@H](CO)[C@@H](O)[C@H](O)[C@H]3O)[C@@H]2[C@@]2(CO)O[C@@H]12)c1ccc(O)cc1 [catalposide]
Clint for OAT3 relative to OATP1B1 (OAT3; OAT3 vs OATP1B1): 31.8 fold | Clint for OAT3 relative to OATP1B3 (OAT3; OAT3 vs OATP1B3): 32.7 fold | Substrate (OCT1): not involved | Inhibitor (OAT1): did not significantly inhibit | Inhibitor (OCT2): did not significantly inhibit | Inhibitor (P-gp): did not significantly inhibit | Stability [1]: remained stable | Stability [2]: remained stable
